Results reported in US20230123856A1, “5-FLUORONICOTINAMIDE DERIVATIVES AND USES THEREOF” (Tenaya Therapeutics, Inc., priority 2019, published 2023).

Each compound was assayed against T1, HDAC6 (Homo sapiens, UniProt Q9UBN7) (assay: Biochemical luminescent HDAC-Glo I/II assay, HDAC6). Conditions: recombinant HDAC6 protein, HDAC-Glo I/II luminescent substrate.
T1 sequence (Q9UBN7 1-1215): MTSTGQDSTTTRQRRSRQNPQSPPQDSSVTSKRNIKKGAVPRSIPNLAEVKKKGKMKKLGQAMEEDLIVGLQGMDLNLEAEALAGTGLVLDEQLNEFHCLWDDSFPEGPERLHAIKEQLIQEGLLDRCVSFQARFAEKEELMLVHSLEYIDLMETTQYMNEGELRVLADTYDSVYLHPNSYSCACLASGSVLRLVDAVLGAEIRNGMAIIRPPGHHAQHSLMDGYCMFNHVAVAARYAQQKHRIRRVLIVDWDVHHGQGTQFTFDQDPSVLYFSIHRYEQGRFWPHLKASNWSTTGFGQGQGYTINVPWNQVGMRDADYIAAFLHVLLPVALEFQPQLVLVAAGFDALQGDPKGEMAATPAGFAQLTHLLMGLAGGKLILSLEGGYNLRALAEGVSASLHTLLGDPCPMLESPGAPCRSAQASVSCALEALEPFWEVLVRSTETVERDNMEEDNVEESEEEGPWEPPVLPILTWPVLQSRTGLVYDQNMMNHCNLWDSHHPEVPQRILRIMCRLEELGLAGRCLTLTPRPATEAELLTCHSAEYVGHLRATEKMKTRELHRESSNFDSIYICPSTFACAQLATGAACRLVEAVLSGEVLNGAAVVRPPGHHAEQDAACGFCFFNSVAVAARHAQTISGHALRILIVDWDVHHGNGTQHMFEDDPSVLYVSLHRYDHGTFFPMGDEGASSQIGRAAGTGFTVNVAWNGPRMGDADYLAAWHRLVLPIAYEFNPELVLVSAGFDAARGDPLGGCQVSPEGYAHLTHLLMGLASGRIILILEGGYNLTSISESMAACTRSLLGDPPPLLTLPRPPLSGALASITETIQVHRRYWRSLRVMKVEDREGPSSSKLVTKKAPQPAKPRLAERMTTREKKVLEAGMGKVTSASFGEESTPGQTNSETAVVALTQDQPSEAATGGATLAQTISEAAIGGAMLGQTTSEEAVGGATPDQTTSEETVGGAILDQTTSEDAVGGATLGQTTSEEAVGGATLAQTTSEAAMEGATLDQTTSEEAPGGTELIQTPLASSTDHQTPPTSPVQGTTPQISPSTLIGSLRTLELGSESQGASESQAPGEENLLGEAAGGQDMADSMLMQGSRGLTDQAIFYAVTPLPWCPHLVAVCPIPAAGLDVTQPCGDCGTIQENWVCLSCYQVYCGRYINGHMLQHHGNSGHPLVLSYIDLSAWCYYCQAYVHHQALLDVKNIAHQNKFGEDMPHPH

Row | IC50 | SMILES
1 | 2.98 nM | Cc1cc2cccnc2n1Cc1ncc(C(=O)NO)cc1F [Compound I-50]
2 | 5.11 nM | O=C(NO)c1cnc(Cn2c(C(F)(F)F)nc3ccccc32)c(F)c1 [Compound I-49]
3 | 3.36 nM | CCC1(Nc2ncc(C(=O)NO)cc2F)COC1 [Compound I-40]
4 | 4.71 nM | COCCC1(Nc2ncc(C(=O)NO)cc2F)CC1 [Compound I-44]
5 | 25.7 nM | O=C(NO)c1cnc(N[C@@H]2CCNC2=O)c(F)c1 [Compound I-43B]
6 | 1.12 nM | COCC1(Nc2ncc(C(=O)NO)cc2F)CC(F)(F)C1 [Compound I-39]
7 | 41.7 nM | CN1CC[C@@H](Nc2ncc(C(=O)NO)cc2F)C1=O [Compound I-42B]
8 | 4.36 nM | CN1Cc2ccccc2N(Cc2ncc(C(=O)NO)cc2F)C1=O [Compound I-47]
9 | 6.51 nM | O=C(NO)c1cnc(NC2(c3ncccc3F)CC2)c(F)c1 [Compound I-45, 5-fluoro-6-{[1-(3-fluoropyridin-2-yl)cyclopropyl]amino}-N-hydroxypyridine-3-carboxamide]
10 | 1.94 nM | Cc1c(C)n(Cc2ncc(C(=O)NO)cc2F)c2ncccc12 [Compound I-51]
11 | 8.69 nM | Cc1nc2cccnc2n1Cc1ncc(C(=O)NO)cc1F [Compound I-53]
12 | 7.67 nM | O=C(NO)c1cnc(NC2(c3ccccn3)COC2)c(F)c1 [Compound I-56]
13 | 5.67 nM | CO[C@H]1COC[C@@H]1Nc1ncc(C(=O)NO)cc1F [Compound I-38]
14 | 4.29 nM | COC(=O)N(Cc1ncc(C(=O)NO)cc1F)c1ncccc1O [Compound I-52]
15 | 3.97 nM | O=C(NO)c1cnc(NC2(C3CC3)CC2)c(F)c1 [Compound I-41]
16 | 29.2 nM | O=C(NO)c1cnc(NC2(c3ncccn3)CC2)c(F)c1 [Compound I-46, 5-fluoro-N-hydroxy-6-((1-(pyrimidin-2-yl)cyclopropyl)amino)nicotinamide]
17 | 14.6 nM | O=C(NO)c1cnc(OC2(c3ccccn3)COC2)c(F)c1 [III-2, 5-fluoro-N-hydroxy-6-{[3-(pyridin-2-yl)oxetan-3-yl]oxy}pyridine-3-carboxamide]
18 | 51.1 nM | O=C(NO)c1cnc(N[C@H]2CCNC2=O)c(F)c1 [Compound I-43A]
19 | 34.3 nM | CN1CC[C@H](Nc2ncc(C(=O)NO)cc2F)C1=O [Compound I-42A]
20 | 2.27 nM | O=C(NO)c1cnc(Cn2c3c(c4ccccc42)S(=O)(=O)CC3)c(F)c1 [Compound I-48]
21 | 3.88 nM | O=C(NO)c1cnc(Cn2ccc3cc(C(=O)NC4CC4)cnc32)c(F)c1 [Compound I-55, N-cyclopropyl-1-((3-fluoro-5-(hydroxycarbamoyl)pyridin-2-yl)methyl)-1H-pyrrolo[2,3-b]pyridine-5-carboxamide]
22 | 80.3 nM | O=C(NO)c1cnc(Cn2c(N3CCOCC3)nc3ccccc32)c(F)c1 [Compound I-54]
23 | 2.18 nM | O=C(NO)c1cnc(NC2(c3ccccn3)CCC2)c(F)c1 [Compound I-37]
